Several values for one entry are separate records, joined by “and”; a condition that tells them apart may be missing. Identical values can stand only once. Inconclusive results and toxic doses are left out.
Test system: L1210 leukemia ip in BDF1 mice, survival T/C
Test: NCI In Vivo Anticancer Drug Screen. Data for tumor model L1210 Leukemia (intraperitoneal) in B6D2F1 (BDF1) mice
Details: endpoint: mean survival time, higher = longer survival
Procedure, shortened: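 Survival endpoint. Drug-treated group vs vehicle group, expressed as T divided by C. Tumor passaged by transplantation.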

[1] = dose: 100.0 mg/kg/injection, schedule: Q01DX009 (ip), vehicle: saline with Tween-80
[2] = dose: 200.0 mg/kg/injection, schedule: Q01DX009 (ip), vehicle: saline with Tween-80
[3] = dose: 100.0 mg/kg/injection, schedule: Q01DX009 (ip), vehicle: saline
[4] = dose: 100.0 mg/kg/injection, schedule: Q04DX002 (ip), vehicle: saline with Tween-80
[5] = dose: 75.0 mg/kg/injection, schedule: Q01DX001 (ip), vehicle: saline
[6] = dose: 150.0 mg/kg/injection, schedule: Q01DX001 (ip), vehicle: saline
[7] = dose: 100.0 mg/kg/injection, schedule: Q04DX003 (ip), vehicle: saline with Tween-80
[8] = dose: 200.0 mg/kg/injection, schedule: Q04DX003 (ip), vehicle: saline with Tween-80
[9] = dose: 400.0 mg/kg/injection, schedule: Q04DX003 (ip), vehicle: saline with Tween-80
[10] = dose: 100.0 mg/kg/injection, schedule: Q04DX003 (ip), vehicle: other
[11] = dose: 200.0 mg/kg/injection, schedule: Q04DX003 (ip), vehicle: other
[12] = dose: 400.0 mg/kg/injection, schedule: Q04DX003 (ip), vehicle: other

## COC(=O)Nc1ccc(C(C)=O)cc1
dose: 20.0 mg/kg/injection, schedule: Q01DX009 (ip), vehicle: saline with Tween-80
  T/C: 95 % of control
dose: 40.0 mg/kg/injection, schedule: Q01DX009 (ip), vehicle: saline with Tween-80
  T/C: 91 % of control
dose: 80.0 mg/kg/injection, schedule: Q01DX009 (ip), vehicle: saline with Tween-80
  T/C: 93 % of control
dose: 160.0 mg/kg/injection, schedule: Q01DX009 (ip), vehicle: saline with Tween-80
  T/C: 101 % of control
dose: 320.0 mg/kg/injection, schedule: Q01DX009 (ip), vehicle: saline with Tween-80
  T/C: 90 % of control

## O=C(Nc1nccs1)Nc1ccc(Cl)cc1[N+](=O)[O-]
dose: 100.0 mg/kg/injection, schedule: Q01DX009 (ip), vehicle: Klucel (hydroxypropylcellulose) (HPC)
  T/C: 105 % of control
dose: 200.0 mg/kg/injection, schedule: Q01DX009 (ip), vehicle: Klucel (hydroxypropylcellulose) (HPC)
  T/C: 100 % of control
dose: 400.0 mg/kg/injection, schedule: Q01DX009 (ip), vehicle: Klucel (hydroxypropylcellulose) (HPC)
  T/C: 102 % of control

## O=C(CCCBr)Nc1ccc2ccccc2c1
dose: 50.0 mg/kg/injection, schedule: Q01DX009 (ip), vehicle: saline with Tween-80
  T/C: 98 % of control
[1]
  T/C: 95 % of control
[2]
  T/C: 95 % of control

## C=C(C)C1CC=C(C)CC1 (centres undefined)
dose: 100.0 mg/kg/injection, schedule: Q01DX001 (ip), vehicle: saline
  T/C: 111 % of control
[3]
  T/C: 91 % of control
dose: 100.0 mg/kg/injection, schedule: Q04DX003 (ip), vehicle: saline
  T/C: 110 % of control
dose: 200.0 mg/kg/injection, schedule: Q01DX001 (ip), vehicle: saline
  T/C: 105 % of control
dose: 200.0 mg/kg/injection, schedule: Q04DX003 (ip), vehicle: saline
  T/C: 97 % of control
dose: 400.0 mg/kg/injection, schedule: Q01DX001 (ip), vehicle: saline
  T/C: 111 % of control
dose: 400.0 mg/kg/injection, schedule: Q04DX003 (ip), vehicle: saline
  T/C: 97 % of control

## CCCSP(=[Se])(CCC)c1ccccc1 (centres undefined)
dose: 25.0 mg/kg/injection, schedule: Q04DX002 (ip), vehicle: saline with Tween-80
  T/C: 97 % of control
dose: 50.0 mg/kg/injection, schedule: Q04DX002 (ip), vehicle: saline with Tween-80
  T/C: 97 % of control
[4]
  T/C: 101 % of control

## COc1cc2cc3c4cc(OC)c(OC)cc4cc[n+]3c(CCC(=O)O)c2cc1OC (tested in a mixture with another compound)
dose: 50.0 mg/kg/injection, schedule: Q04DX002 (ip), vehicle: Klucel (hydroxypropylcellulose) (HPC)
  T/C: 103 % of control
dose: 100.0 mg/kg/injection, schedule: Q04DX002 (ip), vehicle: Klucel (hydroxypropylcellulose) (HPC)
  T/C: 98 % of control
dose: 200.0 mg/kg/injection, schedule: Q04DX002 (ip), vehicle: Klucel (hydroxypropylcellulose) (HPC)
  T/C: 103 % of control

## CCC(F)C(Br)C(=O)O (centres undefined)
[4]
  T/C: 101 % of control
dose: 200.0 mg/kg/injection, schedule: Q04DX002 (ip), vehicle: saline with Tween-80
  T/C: 93 % of control
dose: 400.0 mg/kg/injection, schedule: Q04DX002 (ip), vehicle: saline with Tween-80
  T/C: 87 % of control

## O=C(/C=C/c1c(Cl)cccc1Cl)c1ccc([N+](=O)[O-])cc1
dose: 100.0 mg/kg/injection, schedule: Q04DX003 (ip), vehicle: Klucel (hydroxypropylcellulose) (HPC)
  T/C: 103 % of control
dose: 200.0 mg/kg/injection, schedule: Q04DX003 (ip), vehicle: Klucel (hydroxypropylcellulose) (HPC)
  T/C: 94 % of control
dose: 400.0 mg/kg/injection, schedule: Q04DX003 (ip), vehicle: Klucel (hydroxypropylcellulose) (HPC)
  T/C: 94 % of control

## Fc1ccc(Cl)c2cccnc12
[5]
  T/C: 105 % of control
[6]
  T/C: 102 % of control

## S=C(N/N=C/c1ccc(-c2ccccc2)cc1)Nc1ccccc1
[1]
  T/C: 86 % of control
[7]
  T/C: 97 % of control
[2]
  T/C: 88 % of control
[8]
  T/C: 100 % of control
[9]
  T/C: 94 % of control

## Cc1ccc(CC(O)(CC(O)(c2ccccc2)c2ccccc2)c2ccccc2)cc1C (centres undefined)
[5]
  T/C: 92 % of control
dose: 75.0 mg/kg/injection, schedule: Q04DX003 (ip), vehicle: saline
  T/C: 94 % of control
[6]
  T/C: 92 % of control
dose: 150.0 mg/kg/injection, schedule: Q04DX003 (ip), vehicle: saline
  T/C: 91 % of control
dose: 300.0 mg/kg/injection, schedule: Q01DX001 (ip), vehicle: saline
  T/C: 90 % of control
dose: 300.0 mg/kg/injection, schedule: Q04DX003 (ip), vehicle: saline
  T/C: 94 % of control

## CCN(CC)c1ccc(Cc2ccc3c(c2O)C(=O)c2c(O)cccc2C3=O)cc1
[3]
  T/C: 94 % of control
dose: 100.0 mg/kg/injection, schedule: Q04DX002 (ip), vehicle: saline
  T/C: 101 % of control
dose: 200.0 mg/kg/injection, schedule: Q01DX009 (ip), vehicle: saline
  T/C: 96 % of control
dose: 200.0 mg/kg/injection, schedule: Q04DX002 (ip), vehicle: saline
  T/C: 92 % of control
dose: 400.0 mg/kg/injection, schedule: Q01DX009 (ip), vehicle: saline
  T/C: 97 % of control
dose: 400.0 mg/kg/injection, schedule: Q04DX002 (ip), vehicle: saline
  T/C: 89 % of control

## C[N+]1(C)C2CCCC1CCC2
dose: 3.12 mg/kg/injection, schedule: Q04DX002 (ip), vehicle: Klucel (hydroxypropylcellulose) (HPC)
  T/C: 93 % of control
dose: 6.25 mg/kg/injection, schedule: Q04DX002 (ip), vehicle: Klucel (hydroxypropylcellulose) (HPC)
  T/C: 104 % of control
dose: 12.5 mg/kg/injection, schedule: Q04DX002 (ip), vehicle: Klucel (hydroxypropylcellulose) (HPC)
  T/C: 90 % of control

## CCCCOC(=O)CSC(=O)C(O)c1ccccc1 (centres undefined)
[7]
  T/C: 105 % of control
[8]
  T/C: 101 % of control
[9]
  T/C: 103 % of control

## CC1(O)CC2CCC1C2 (centres undefined)
dose: 100.0 mg/kg/injection, schedule: Q01DX009 (ip), vehicle: other
  T/C: 102 % of control
[1]
  T/C: 92 % of control
[10]
  T/C: 95 % of control
dose: 200.0 mg/kg/injection, schedule: Q01DX009 (ip), vehicle: other
  T/C: 120 % of control
[2]
  T/C: 106 % of control
[11]
  T/C: 100 % of control
dose: 400.0 mg/kg/injection, schedule: Q01DX009 (ip), vehicle: other
  T/C: 104 % of control
dose: 400.0 mg/kg/injection, schedule: Q01DX009 (ip), vehicle: saline with Tween-80
  T/C: 92 % of control
[12]
  T/C: 91 % of control

## CCC1=NNC(=O)C1(Br)Br
dose: 5.0 mg/kg/injection, schedule: Q01DX001 (ip), vehicle: saline
  T/C: 105 % of control
dose: 10.0 mg/kg/injection, schedule: Q01DX001 (ip), vehicle: saline
  T/C: 100 % of control
dose: 20.0 mg/kg/injection, schedule: Q01DX001 (ip), vehicle: saline
  T/C: 100 % of control
dose: 40.0 mg/kg/injection, schedule: Q01DX001 (ip), vehicle: saline
  T/C: 97 % of control
dose: 80.0 mg/kg/injection, schedule: Q01DX001 (ip), vehicle: saline
  T/C: 103 % of control

## CC(C)=CCC/C(C)=C/Cn1c(=O)cc[nH]c1=O
[10]
  T/C: 96 % of control
[11]
  T/C: 86 % of control
[12]
  T/C: 86 % of control

## Cc1ccccc1[P+](Cc1ccccc1)(c1ccccc1C)c1ccccc1C
dose: 15.0 mg/kg/injection, schedule: Q01DX001 (ip), vehicle: carboxymethylcellulose (CMC)
  T/C: 96 % of control
dose: 30.0 mg/kg/injection, schedule: Q01DX001 (ip), vehicle: carboxymethylcellulose (CMC)
  T/C: 94 % of control
dose: 60.0 mg/kg/injection, schedule: Q01DX001 (ip), vehicle: carboxymethylcellulose (CMC)
  T/C: 94 % of control

## CN(C)CCNc1ccc([N+](=O)[O-])c2sc3ccccc3c(=O)c12
dose: 5.3 mg/kg/injection, schedule: Q01DX Z (ip), vehicle: methylcellulose (MC)
  T/C: 94 % of control and 98 % of control
dose: 8.0 mg/kg/injection, schedule: Q01DX Z (ip), vehicle: carboxymethylcellulose (CMC)
  T/C: 102 % of control
dose: 8.0 mg/kg/injection, schedule: Q01DX Z (ip), vehicle: methylcellulose (MC)
  T/C: 98 % of control and 106 % of control
dose: 12.0 mg/kg/injection, schedule: Q01DX Z (ip), vehicle: carboxymethylcellulose (CMC)
  T/C: 118 % of control
dose: 26.0 mg/kg/injection, schedule: Q01DX Z (ip), vehicle: carboxymethylcellulose (CMC)
  T/C: 152 % of control
dose: 27.0 mg/kg/injection, schedule: Q01DX Z (ip), vehicle: carboxymethylcellulose (CMC)
  T/C: 156 % of control
dose: 27.0 mg/kg/injection, schedule: Q01DX Z (ip), vehicle: methylcellulose (MC)
  T/C: 98 % of control and 156 % of control and 216 % of control
dose: 40.0 mg/kg/injection, schedule: Q01DX Z (ip), vehicle: carboxymethylcellulose (CMC)
  T/C: 172 % of control
dose: 40.0 mg/kg/injection, schedule: Q01DX Z (ip), vehicle: methylcellulose (MC)
  T/C: 111 % of control

Reference: PubChem BioAssay AID248 (DTP/NCI, 2004)
